From paper PMC8213057, “Targeting ALK2: An Open Science Approach to Developing Therapeutics for the Treatment of Diffuse Intrinsic Pontine Glioma” (Journal of Medicinal Chemistry, 2020)

How the values were obtained:
TAOK1 = molecular target: T1, TAOK1 (Homo sapiens, UniProt Q7L7X3); assay: 375-member kinase panel; assay type: biochemical; settings: Run 1, Run 2; for % enzyme activity: 1 μM; for remaining activity at 1 µM: read-out: % enzyme activity, 1 μM
T1 construct: purchased Reaction Biology Corporation
T1 sequence (Q7L7X3 1-1001): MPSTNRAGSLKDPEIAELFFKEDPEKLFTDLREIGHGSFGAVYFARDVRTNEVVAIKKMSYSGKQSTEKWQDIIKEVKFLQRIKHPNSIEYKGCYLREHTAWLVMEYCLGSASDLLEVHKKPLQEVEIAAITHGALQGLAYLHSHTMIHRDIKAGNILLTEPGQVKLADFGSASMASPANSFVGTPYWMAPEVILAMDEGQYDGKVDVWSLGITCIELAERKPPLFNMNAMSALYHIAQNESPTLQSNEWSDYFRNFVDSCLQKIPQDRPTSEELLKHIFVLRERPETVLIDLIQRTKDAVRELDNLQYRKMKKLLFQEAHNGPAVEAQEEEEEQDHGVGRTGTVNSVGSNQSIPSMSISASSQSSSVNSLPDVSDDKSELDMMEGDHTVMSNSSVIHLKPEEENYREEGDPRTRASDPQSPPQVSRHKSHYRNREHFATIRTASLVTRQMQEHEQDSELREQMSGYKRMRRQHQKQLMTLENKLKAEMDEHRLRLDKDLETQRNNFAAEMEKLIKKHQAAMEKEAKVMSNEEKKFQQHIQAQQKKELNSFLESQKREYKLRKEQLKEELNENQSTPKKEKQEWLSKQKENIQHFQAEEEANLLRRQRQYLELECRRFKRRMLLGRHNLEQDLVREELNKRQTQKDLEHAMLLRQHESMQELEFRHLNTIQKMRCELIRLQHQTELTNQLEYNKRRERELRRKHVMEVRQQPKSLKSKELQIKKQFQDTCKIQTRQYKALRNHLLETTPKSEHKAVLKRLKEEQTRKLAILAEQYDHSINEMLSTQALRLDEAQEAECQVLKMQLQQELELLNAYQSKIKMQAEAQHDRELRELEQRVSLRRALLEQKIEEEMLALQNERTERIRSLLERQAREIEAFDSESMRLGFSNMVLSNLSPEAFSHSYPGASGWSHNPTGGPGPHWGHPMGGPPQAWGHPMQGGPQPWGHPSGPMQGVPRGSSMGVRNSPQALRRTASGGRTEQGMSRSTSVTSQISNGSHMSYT

c-MER = molecular target: T2, c-MER (Homo sapiens, UniProt Q12866); settings: 1 μM; Run 1, Run 2
T2 sequence (Q12866 21-999): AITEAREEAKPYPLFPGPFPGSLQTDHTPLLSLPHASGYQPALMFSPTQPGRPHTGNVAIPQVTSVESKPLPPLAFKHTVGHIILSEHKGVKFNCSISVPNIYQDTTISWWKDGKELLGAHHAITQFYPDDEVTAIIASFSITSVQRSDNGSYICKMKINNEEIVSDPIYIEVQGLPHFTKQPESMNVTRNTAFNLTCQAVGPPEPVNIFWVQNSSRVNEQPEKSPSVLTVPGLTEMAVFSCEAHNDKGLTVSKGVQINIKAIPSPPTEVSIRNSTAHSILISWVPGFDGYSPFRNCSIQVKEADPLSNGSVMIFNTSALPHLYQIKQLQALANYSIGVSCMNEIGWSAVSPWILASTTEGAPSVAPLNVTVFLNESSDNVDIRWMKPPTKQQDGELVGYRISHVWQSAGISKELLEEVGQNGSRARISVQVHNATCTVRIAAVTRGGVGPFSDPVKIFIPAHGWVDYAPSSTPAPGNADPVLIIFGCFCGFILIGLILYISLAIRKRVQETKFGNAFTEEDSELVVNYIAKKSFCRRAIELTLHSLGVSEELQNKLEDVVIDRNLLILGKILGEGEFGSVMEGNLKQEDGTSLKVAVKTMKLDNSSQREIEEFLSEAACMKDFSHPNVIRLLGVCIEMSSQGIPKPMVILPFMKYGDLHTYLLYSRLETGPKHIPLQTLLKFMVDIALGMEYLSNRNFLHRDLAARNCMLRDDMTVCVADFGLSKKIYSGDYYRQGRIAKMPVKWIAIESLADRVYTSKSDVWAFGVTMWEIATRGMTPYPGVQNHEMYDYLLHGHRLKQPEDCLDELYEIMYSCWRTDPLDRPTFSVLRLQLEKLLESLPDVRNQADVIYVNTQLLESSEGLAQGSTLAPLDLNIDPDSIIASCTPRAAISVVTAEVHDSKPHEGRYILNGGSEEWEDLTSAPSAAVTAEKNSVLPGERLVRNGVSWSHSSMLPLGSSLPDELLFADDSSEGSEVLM

CAMK2b = CAMK2b (Homo sapiens, UniProt Q13554); settings: 1 μM; Run 1, Run 2
CDK18/cyclin Y (PCTK3) = CDK18/cyclin Y (PCTK3) (Homo sapiens, UniProt Q07002); settings: 1 μM; Run 1, Run 2
PDGFRb = PDGFRb (Homo sapiens, UniProt P09619); settings: 1 μM; Run 1, Run 2
PKAcb = PKAcb (Homo sapiens, UniProt P22694); settings: 1 μM; Run 1, Run 2
TLK2 = TLK2 (Homo sapiens, UniProt Q86UE8); settings: 1 μM; Run 1, Run 2
MAPKAPK2 = MAPKAPK2 (Homo sapiens, UniProt P49137); assay: biochemical; settings: read-out: % enzyme activity, 1 μM; Run 1, Run 2
PKN2/PRK2 = PKN2/PRK2 (Homo sapiens, UniProt Q16513); assay: biochemical; settings: read-out: % enzyme activity, 1 μM; Run 1, Run 2
TTBK1 = TTBK1 (Homo sapiens, UniProt Q5TCY1); assay: biochemical; settings: read-out: % enzyme activity, 1 μM; Run 1, Run 2
Sequence of TTBK1 (Q5TCY1 whole entry): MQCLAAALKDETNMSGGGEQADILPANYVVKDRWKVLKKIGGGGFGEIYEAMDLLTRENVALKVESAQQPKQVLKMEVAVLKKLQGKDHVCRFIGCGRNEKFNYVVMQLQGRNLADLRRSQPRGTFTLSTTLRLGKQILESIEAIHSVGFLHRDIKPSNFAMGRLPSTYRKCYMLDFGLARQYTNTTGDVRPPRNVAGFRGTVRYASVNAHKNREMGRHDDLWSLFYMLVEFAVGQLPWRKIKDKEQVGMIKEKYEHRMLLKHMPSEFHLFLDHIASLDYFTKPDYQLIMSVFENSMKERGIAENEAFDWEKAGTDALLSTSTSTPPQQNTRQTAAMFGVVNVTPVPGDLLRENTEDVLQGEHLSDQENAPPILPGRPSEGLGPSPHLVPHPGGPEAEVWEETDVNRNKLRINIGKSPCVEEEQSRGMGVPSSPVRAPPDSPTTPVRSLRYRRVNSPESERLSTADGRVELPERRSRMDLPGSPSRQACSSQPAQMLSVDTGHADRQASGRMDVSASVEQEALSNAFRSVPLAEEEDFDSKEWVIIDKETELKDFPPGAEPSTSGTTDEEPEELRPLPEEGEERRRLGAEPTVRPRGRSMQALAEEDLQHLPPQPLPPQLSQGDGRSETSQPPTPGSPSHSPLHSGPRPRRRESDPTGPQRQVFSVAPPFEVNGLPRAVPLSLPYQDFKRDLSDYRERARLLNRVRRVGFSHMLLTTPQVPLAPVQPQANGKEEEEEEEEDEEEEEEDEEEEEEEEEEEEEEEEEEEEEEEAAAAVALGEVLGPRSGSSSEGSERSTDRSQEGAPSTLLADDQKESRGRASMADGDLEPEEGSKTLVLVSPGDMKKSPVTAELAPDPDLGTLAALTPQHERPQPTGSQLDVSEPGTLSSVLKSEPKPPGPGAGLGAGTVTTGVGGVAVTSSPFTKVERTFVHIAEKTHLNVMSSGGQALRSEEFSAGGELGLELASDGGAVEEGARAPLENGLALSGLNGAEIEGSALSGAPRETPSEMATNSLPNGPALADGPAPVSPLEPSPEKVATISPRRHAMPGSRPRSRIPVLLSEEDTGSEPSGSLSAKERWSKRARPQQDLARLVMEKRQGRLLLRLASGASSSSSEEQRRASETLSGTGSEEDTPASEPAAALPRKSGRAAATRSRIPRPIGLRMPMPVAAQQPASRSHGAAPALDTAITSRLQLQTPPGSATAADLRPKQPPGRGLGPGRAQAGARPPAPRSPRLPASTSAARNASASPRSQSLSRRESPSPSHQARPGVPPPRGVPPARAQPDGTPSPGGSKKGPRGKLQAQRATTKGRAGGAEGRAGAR

Sequence of PDGFRb (P09619 33-1106): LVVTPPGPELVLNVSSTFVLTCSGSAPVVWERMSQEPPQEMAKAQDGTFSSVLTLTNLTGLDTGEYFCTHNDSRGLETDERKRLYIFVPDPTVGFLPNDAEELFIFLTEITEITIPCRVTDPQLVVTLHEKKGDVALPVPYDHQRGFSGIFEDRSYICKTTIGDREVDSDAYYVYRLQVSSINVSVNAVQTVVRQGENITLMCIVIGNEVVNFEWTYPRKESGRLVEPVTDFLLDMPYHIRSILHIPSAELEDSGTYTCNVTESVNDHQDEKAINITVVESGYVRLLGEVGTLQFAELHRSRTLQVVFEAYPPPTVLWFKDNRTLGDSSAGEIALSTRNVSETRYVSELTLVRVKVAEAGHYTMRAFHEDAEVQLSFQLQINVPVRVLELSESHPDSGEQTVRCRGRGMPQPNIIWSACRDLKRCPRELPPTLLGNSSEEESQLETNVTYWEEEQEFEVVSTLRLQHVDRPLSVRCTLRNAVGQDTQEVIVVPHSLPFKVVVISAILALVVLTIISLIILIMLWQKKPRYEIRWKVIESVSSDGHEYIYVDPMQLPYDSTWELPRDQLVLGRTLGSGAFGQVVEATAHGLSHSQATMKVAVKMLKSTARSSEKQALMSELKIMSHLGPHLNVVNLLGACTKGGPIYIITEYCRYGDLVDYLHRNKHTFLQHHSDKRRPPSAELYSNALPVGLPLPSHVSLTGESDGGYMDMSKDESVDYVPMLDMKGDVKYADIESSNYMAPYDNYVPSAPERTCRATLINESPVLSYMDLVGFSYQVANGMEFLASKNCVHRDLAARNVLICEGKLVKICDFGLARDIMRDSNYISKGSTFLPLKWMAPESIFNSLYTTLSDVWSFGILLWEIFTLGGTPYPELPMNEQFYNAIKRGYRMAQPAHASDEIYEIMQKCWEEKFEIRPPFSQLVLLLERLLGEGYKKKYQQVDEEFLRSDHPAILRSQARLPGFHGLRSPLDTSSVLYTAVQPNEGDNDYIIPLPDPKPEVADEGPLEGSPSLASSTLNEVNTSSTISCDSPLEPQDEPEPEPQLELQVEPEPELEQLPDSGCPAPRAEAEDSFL
Sequence of PKN2/PRK2 (Q16513 whole entry): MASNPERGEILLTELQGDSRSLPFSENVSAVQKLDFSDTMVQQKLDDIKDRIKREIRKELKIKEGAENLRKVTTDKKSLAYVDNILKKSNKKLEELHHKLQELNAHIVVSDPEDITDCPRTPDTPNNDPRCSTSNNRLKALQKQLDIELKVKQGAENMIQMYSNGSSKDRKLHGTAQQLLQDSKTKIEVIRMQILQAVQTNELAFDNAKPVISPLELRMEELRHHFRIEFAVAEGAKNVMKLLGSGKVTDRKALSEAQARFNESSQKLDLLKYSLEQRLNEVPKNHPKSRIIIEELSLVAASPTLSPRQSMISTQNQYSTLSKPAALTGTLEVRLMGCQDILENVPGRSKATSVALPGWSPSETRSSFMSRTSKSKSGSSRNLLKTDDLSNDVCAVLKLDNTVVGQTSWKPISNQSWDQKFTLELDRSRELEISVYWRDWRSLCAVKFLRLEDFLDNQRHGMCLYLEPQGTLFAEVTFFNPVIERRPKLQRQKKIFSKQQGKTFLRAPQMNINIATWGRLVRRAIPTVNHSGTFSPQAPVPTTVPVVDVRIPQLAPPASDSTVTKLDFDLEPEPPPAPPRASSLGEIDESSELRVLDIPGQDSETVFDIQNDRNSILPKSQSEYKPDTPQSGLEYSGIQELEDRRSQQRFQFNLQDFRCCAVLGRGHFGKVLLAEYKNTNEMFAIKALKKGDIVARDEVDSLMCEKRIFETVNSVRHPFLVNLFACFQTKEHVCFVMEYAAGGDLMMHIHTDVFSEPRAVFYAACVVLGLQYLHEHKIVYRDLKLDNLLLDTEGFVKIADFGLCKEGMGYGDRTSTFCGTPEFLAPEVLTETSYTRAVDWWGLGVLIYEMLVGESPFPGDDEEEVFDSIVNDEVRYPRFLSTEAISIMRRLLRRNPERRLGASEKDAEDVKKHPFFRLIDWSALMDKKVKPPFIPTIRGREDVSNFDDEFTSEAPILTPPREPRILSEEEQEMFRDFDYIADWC
Sequence of TLK2 (Q86UE8 whole entry): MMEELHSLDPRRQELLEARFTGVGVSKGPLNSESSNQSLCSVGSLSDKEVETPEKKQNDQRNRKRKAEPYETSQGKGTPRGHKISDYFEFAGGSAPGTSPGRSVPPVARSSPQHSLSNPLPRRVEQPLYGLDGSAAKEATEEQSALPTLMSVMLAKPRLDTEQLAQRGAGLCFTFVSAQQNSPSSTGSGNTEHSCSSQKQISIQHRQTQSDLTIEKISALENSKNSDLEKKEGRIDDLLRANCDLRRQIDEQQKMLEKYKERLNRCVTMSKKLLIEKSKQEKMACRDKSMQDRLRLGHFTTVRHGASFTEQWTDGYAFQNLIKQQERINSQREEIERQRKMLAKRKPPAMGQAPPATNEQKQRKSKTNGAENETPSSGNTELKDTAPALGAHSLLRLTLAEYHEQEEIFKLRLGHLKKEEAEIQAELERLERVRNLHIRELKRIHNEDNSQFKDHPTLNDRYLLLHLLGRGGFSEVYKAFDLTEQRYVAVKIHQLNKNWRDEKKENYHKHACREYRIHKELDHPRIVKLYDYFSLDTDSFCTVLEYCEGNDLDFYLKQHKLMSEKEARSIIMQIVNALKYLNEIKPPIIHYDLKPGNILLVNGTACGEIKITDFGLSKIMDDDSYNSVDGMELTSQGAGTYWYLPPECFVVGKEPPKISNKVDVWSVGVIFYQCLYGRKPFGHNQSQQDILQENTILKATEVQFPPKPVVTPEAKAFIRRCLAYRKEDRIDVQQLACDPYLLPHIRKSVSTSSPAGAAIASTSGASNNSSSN
Sequence of CDK18/cyclin Y (PCTK3) (Q07002 whole entry): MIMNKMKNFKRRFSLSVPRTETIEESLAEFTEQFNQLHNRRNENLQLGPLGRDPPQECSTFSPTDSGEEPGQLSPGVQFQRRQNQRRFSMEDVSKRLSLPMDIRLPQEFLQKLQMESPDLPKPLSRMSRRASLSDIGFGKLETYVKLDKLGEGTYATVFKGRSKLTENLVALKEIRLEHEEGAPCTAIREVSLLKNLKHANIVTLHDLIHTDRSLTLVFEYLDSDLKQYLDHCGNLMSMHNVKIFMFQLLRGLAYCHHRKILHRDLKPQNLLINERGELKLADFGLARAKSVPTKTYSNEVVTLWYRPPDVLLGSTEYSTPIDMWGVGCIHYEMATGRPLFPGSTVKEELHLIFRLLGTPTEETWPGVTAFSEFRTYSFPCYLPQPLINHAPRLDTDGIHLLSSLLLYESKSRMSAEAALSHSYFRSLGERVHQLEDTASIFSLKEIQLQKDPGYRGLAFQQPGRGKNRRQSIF
Sequence of CDK18/cyclin Y (PCTK3) (Q8ND76 whole entry partner): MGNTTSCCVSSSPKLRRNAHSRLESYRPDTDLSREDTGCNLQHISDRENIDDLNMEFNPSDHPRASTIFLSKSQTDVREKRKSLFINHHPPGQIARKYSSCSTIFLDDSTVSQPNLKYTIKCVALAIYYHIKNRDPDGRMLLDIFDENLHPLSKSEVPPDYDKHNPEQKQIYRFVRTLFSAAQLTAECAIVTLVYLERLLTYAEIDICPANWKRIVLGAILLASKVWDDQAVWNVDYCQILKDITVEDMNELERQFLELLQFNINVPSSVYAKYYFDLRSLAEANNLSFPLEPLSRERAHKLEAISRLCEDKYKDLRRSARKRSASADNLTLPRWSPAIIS

SMILES	CYP inhibition (CYP2C9) [µM]	% enzyme activity (TAOK1) [%]	remaining activity at 1 µM (TAOK1) [%]	% enzyme activity (c-MER) [%]	% enzyme activity (CAMK2b) [%]	% enzyme activity (CDK18/cyclin Y (PCTK3)) [%]	% enzyme activity (PDGFRb) [%]	% enzyme activity (PKAcb) [%]	% enzyme activity (TLK2) [%]	remaining activity at 1 µM (MAPKAPK2) [%]	remaining activity at 1 µM (PKN2/PRK2) [%]	remaining activity at 1 µM (TTBK1) [%]
COc1cc(-c2cncc(-c3ccc(N4CCN(C)CC4)cc3)c2C)cc(F)c1C(N)=O [Compound 26a, 2-Fluoro-6-methoxy-4-(4-methyl-5-(4-(4-methylpiperazin-1-yl)phenyl)pyridin-3-yl)benzamide]	> 50	60.19	60.3	99.93	83.40	100.43	76.01	95.19	95.61	103	94.5	97.3
COc1cc(-c2cncc(-c3ccc(N4C[C@@H](C)N(C)[C@@H](C)C4)cc3)c2C)cc(F)c1C(N)=O [Compound 26c, 2-Fluoro-6-methoxy-4-(4-methyl-5-(4-((3R,5S)-3,4,5-trimethylpiperazin-1-yl)phenyl)pyridin-3-yl)benzamide]	> 50	60.59	62.2	96.34	91.32	97.60	89.56	96.20	89.84	95.4	95.9	99.4
